Experimental data taken from patent US12091409B2, “Ether linked triazoles as NRF2 activators” (ASTEX THERAPEUTICS LIMITED, priority 2016, dated 2024).
Counter-ions that a name gives are not always drawn.

System: NQO1 specific enzyme activity in BEAS-2B cells (marker for NRF2 activation)
Experiment: BEAS-2B NQO1 MTT Assay
Type: cell-based
Conditions: Homo sapiens, BEAS-2B, 48 h, NQO1 specific activity induction, 48 hours with compound
Method in brief: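 Following 48 h compound treatment at 37° C., 5% CO2, cells were lysed and MTT cocktail added. Product formation was followed kinetically at 570 nm for 30 min. Rate (Delta OD/min) against log concentration was fitted with 3 parameters to give pEC50 for induction of NQO1 specific activity.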

SMILES	EC50
Cc1ccc(C(OCc2cn(CC3CCNCC3)nn2)C(C)(C)C(=O)O)cc1CN1C[C@@H](C)Oc2ccccc2S1(=O)=O (stereo partly drawn) [Example 53, 2,2-Dimethyl-3-(4-methyl-3-(((R)-4-methyl-1,1-dioxido-3,4-dihydro-2H-benzo[b][1,4,5]oxathiazepin-2-yl)methyl)phenyl)-3-((1-(piperidin-4-ylmethyl)-1H-1,2,3-triazol-4-yl)methoxy)propanoic Acid, Formic Acid Salt]	100 to 1000 nM
CCn1cc(COC(c2ccc(C)c(CN(CC3CCCCCC3)C(C)=O)c2)C(C)(C)C(=O)O)nn1 (stereo not shown) [Example 54, 3-(3-((N-(cycloheptylmethyl)acetamido)methyl)-4-methylphenyl)-3-((1-ethyl-1H-1,2,3-triazol-4-yl)methoxy)-2,2-dimethylpropanoic acid]	100 to 1000 nM
Cc1ccc(C(OCc2cn(CC3CCN(C4CCN(C)CC4)CC3)nn2)C(C)(C)C(=O)O)cc1CN1C[C@@H](C)Oc2ccccc2S1(=O)=O (stereo partly drawn) [Example 55, 2,2-Dimethyl-3-(4-methyl-3-(((R)-4-methyl-1,1-dioxido-3,4-dihydro-2H-benzo[b][1,4,5]oxathiazepin-2-yl)methyl)phenyl)-3-((1-((1′-methyl-[1,4′-bipiperidin]-4-yl)methyl)-1H-1,2,3-triazol-4-yl)methoxy)propanoic Acid, Formic Acid Salt]	100 to 1000 nM
COC(=O)C(C)(C)C(OCc1cn(Cc2cccc(-c3ccnc(C(=O)O)c3)c2)nn1)c1ccc(C)c(CN2C[C@@H](C)Oc3ccccc3S2(=O)=O)c1 (stereo partly drawn) [Example 57, 4-(3-((4-((3-Methoxy-2,2-dimethyl-1-(4-methyl-3-(((R)-4-methyl-1,1-dioxido-3,4-dihydro-2H-benzo[b][1,4,5]oxathiazepin-2-yl)methyl)phenyl)-3-oxopropoxy)methyl)-1H-1,2,3-triazol-1-yl)methyl)phenyl)picolinic acid]	100 to 1000 nM
COC(=O)C(C)(C)C(OCc1cn(Cc2cccc(-c3cccc(C(=O)O)n3)c2)nn1)c1ccc(C)c(CN2C[C@@H](C)Oc3ccccc3S2(=O)=O)c1 (stereo partly drawn) [Example 58, 6-(3-((4-((3-Methoxy-2,2-dimethyl-1-(4-methyl-3-(((R)-4-methyl-1,1-dioxido-3,4-dihydro-2H-benzo[b][1,4,5]oxathiazepin-2-yl)methyl)phenyl)-3-oxopropoxy)methyl)-1H-1,2,3-triazol-1-yl)methyl)-phenyl)picolinic acid]	100 to 1000 nM
COC(=O)C(C)(C)C(OCc1cn(Cc2cccc(-c3ccc(C(=O)O)cn3)c2)nn1)c1ccc(C)c(CN2C[C@@H](C)Oc3ccccc3S2(=O)=O)c1 (stereo partly drawn) [Example 59, 6-(3-((4-((3-Methoxy-2,2-dimethyl-1-(4-methyl-3-(((R)-4-methyl-1,1-dioxido-3,4-dihydro-2H-benzo[b][1,4,5]oxathiazepin-2-yl)methyl)phenyl)-3-oxopropoxy)methyl)-1H-1,2,3-triazol-1-yl)methyl)-phenyl)nicotinic acid]	1000 to 10000 nM
CC[C@@H]1CN(Cc2cc(C(OCc3cn(CC)nn3)C(F)(F)C(=O)O)ccc2C)S(=O)(=O)c2ccccc2O1 (stereo partly drawn) [Example 60, 3-(3-(((R)-4-Ethyl-1,1-dioxido-3,4-dihydro-2H-benzo[b][1,4,5]oxathiazepin-2-yl)methyl)-4-methylphenyl)-3-((1-ethyl-1H-1,2,3-triazol-4-yl)methoxy)-2,2-difluoropropanoic acid]	100 to 1000 nM
CCn1cc(CO[C@H](c2ccc(C)c(CN3C[C@@H](C)Cc4ccncc4S3(=O)=O)c2)C(C)(C)C(=O)O)nn1 [Example 61, (3R)-((1-ethyl-1H-1,2,3-triazol-4-yl)methoxy)-2,2-dimethyl-3-(4-methyl-3-(((S)-4-methyl-1,1-dioxido-4,5-dihydropyrido[4,3-f][1,2]thiazepin-2(3H)-yl)methyl)phenyl)propanoic acid]	< 1 nM
CCn1cc(CO[C@H](c2ccc(C)c(CN3C[C@@H](C)Cc4ncccc4S3(=O)=O)c2)C(C)(C)C(=O)O)nn1 [Example 62, (3R)-((1-ethyl-1H-1,2,3-triazol-4-yl)methoxy)-2,2-dimethyl-3-(4-methyl-3-(((S)-4-methyl-1,1-dioxido-4,5-dihydropyrido[2,3-f][1,2]thiazepin-2(3H)-yl)methyl)phenyl)propanoic acid]	< 1 nM
CCn1cc(CO[C@@H](c2ccc(C)c(CN3C[C@H](C)Cc4ccncc4S3(=O)=O)c2)C(C)(C)C(=O)O)nn1 [Example 63, (3S)-((1-ethyl-1H-1,2,3-triazol-4-yl)methoxy)-2,2-dimethyl-3-(4-methyl-3-(((R)-4-methyl-1,1-dioxido-4,5-dihydropyrido[4,3-f][1,2]thiazepin-2(3H)-yl)methyl)phenyl)propanoic acid]	1000 to 10000 nM
CCn1cc(CO[C@@H](c2ccc(C)c(CN3C[C@H](C)Cc4ncccc4S3(=O)=O)c2)C(C)(C)C(=O)O)nn1 [Example 64, (3S)-((1-ethyl-1H-1,2,3-triazol-4-yl)methoxy)-2,2-dimethyl-3-(4-methyl-3-(((R)-4-methyl-1,1-dioxido-4,5-dihydropyrido[2,3-f][1,2]thiazepin-2(3H)-yl)methyl)phenyl)propanoic acid]	100 to 1000 nM
CCn1cc(CO[C@@H](c2ccc(C)c(CN3C[C@H](C)Cc4ccccc4S3(=O)=O)c2)C(C)(C)C(=O)O)nn1 [Example 65, (3S)-((1-ethyl-1H-1,2,3-triazol-4-yl)methoxy)-2,2-dimethyl-3-(4-methyl-3-(((R)-4-methyl-1,1-dioxido-4,5-dihydrobenzo[f][1,2]thiazepin-2(3H)-yl)methyl)phenyl)propanoic acid]	100 to 1000 nM
CCn1cc(CO[C@H](c2ccc(C)c(CN3C[C@H](C)Cc4ccncc4S3(=O)=O)c2)C(C)(C)C(=O)O)nn1 [Example 66, (3R)-((1-ethyl-1H-1,2,3-triazol-4-yl)methoxy)-2,2-dimethyl-3-(4-methyl-3-(((R)-4-methyl-1,1-dioxido-4,5-dihydropyrido[4,3-f][1,2]thiazepin-2(3H)-yl)methyl)phenyl)propanoic acid]	100 to 1000 nM
CCCn1cc(CO[C@H](c2ccc(C)c(CN3C[C@H](C)Cc4ccncc4S3(=O)=O)c2)C(C)(C)C(=O)O)nn1 [Example 67, (R)-2,2-dimethyl-3-(4-methyl-3-(((R)-4-methyl-1,1-dioxido-4,5-dihydropyrido[4,3-f][1,2]thiazepin-2(3H)-yl)methyl)phenyl)-3-((1-propyl-1H-1,2,3-triazol-4-yl)methoxy)propanoic acid]	100 to 1000 nM
CCn1cc(CO[C@H](c2ccc(C)c(CN3C[C@H](C)Cc4ncccc4S3(=O)=O)c2)C(C)(C)C(=O)O)nn1 [Example 68, (3R)-((1-ethyl-1H-1,2,3-triazol-4-yl)methoxy)-2,2-dimethyl-3-(4-methyl-3-(((R)-4-methyl-1,1-dioxido-4,5-dihydropyrido[2,3-f][1,2]thiazepin-2(3H)-yl)methyl)phenyl)propanoic acid]	10 to 100 nM
CC[C@@H]1Cc2ccccc2S(=O)(=O)N(Cc2cc([C@H](OCc3cn(CC)nn3)C(C)(C)C(=O)O)ccc2C)C1 [Example 69, (3S)-((1-ethyl-1H-1,2,3-triazol-4-yl)methoxy)-2,2-dimethyl-3-(4-methyl-3-(((R)-4-ethyl-1,1-dioxido-4,5-dihydrobenzo[f][1,2]thiazepin-2(3H)-yl)methyl)phenyl)propanoic acid]	10 to 100 nM
CCn1cc(CO[C@H](c2ccc(C)c(CN3C[C@H](C)Cc4ccccc4S3(=O)=O)c2)C(C)(C)C(=O)O)nn1 [Example 70, (3R)-((1-ethyl-1H-1,2,3-triazol-4-yl)methoxy)-2,2-dimethyl-3-(4-methyl-3-(((R)-4-methyl-1,1-dioxido-4,5-dihydrobenzo[f][1,2]thiazepin-2(3H)-yl)methyl)phenyl)propanoic acid]	10 to 100 nM
COCCOCCn1cc(CO[C@@H](c2ccc(C)c(CN3C[C@@H](C)Oc4ccccc4S3(=O)=O)c2)C(C)(C)C(=O)O)nn1 [Example 71, (3S)-((1-(2-(2-methoxyethoxy)ethyl)-1H-1,2,3-triazol-4-yl)methoxy)-2,2-dimethyl-3-(4-methyl-3-(((R)-4-methyl-1,1-dioxido-3,4-dihydro-2H-benzo[b][1,4,5]oxathiazepin-2-yl)methyl)phenyl)propanoic acid]	10 to 100 nM
CCn1cc(CO[C@@H](c2ccc(C)c(CN3C[C@@H](C)Cc4ncccc4S3(=O)=O)c2)C(C)(C)C(=O)O)nn1 [Example 72, (3S)-((1-ethyl-1H-1,2,3-triazol-4-yl)methoxy)-2,2-dimethyl-3-(4-methyl-3-(((S)-4-methyl-1,1-dioxido-4,5-dihydropyrido[2,3-f][1,2]thiazepin-2(3H)-yl)methyl)phenyl)propanoic acid]	10 to 100 nM
CCn1cc(COC(c2ccc(C)c(CN(Cc3ccccn3)S(=O)(=O)c3cccc(Br)c3)c2)C(C)(C)C(=O)O)nn1 (stereo not shown) [Example 74, 3-(3-(((3-Bromo-N-(pyridin-2-ylmethyl)phenyl)sulfonamido)methyl)-4-methylphenyl)-3-((1-ethyl-1H-1,2,3-triazol-4-yl)methoxy)-2,2-dimethylpropanoic acid]	10 to 100 nM
CCn1cc(CO[C@@H](c2ccc(C)c(CN3C[C@@H](C)Cc4ccccc4S3(=O)=O)c2)C(C)(C)C(=O)O)nn1 [Example 75, (3S)-((1-ethyl-1H-1,2,3-triazol-4-yl)methoxy)-2,2-dimethyl-3-(4-methyl-3-(((S)-4-methyl-1,1-dioxido-4,5-dihydrobenzo[f][1,2]thiazepin-2(3H)-yl)methyl)phenyl)propanoic acid]	1 to 10 nM
CCCn1cc(CO[C@H](c2ccc(C)c(CN3C[C@H](C)Cc4ccc(F)cc4S3(=O)=O)c2)C(C)(C)C(=O)O)nn1 [Example 76, (3R)-(3-(((R)-8-fluoro-4-methyl-1,1-dioxido-4,5-dihydrobenzo[f][1,2]thiazepin-2(3H)-yl)methyl)-4-methylphenyl)-2,2-dimethyl-3-((1-propyl-1H-1,2,3-triazol-4-yl)methoxy)propanoic acid]	1 to 10 nM
